The source made the active and inactive calls.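 Rule for the calls: active = compound-induced drop in polymyxin IC50 in wild-type bacteria exceeding double the drop in a mutant lacking PhoP; inactive = the rest.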
How the values were obtained:
[1] = polymyxin IC50 shift, WT versus phoP- Typhimurium – Salmonella typhimurium, WT and phoP- strains, set 2, mechanism study for PhoP regulon inhibitor project (AID 2816); conditions: S. Typhimurium polymyxin IC50 shift, OD600, 24 h, at 150 µM
[2] = system: S. Typhimurium polymyxin IC50 shift, OD600, 24 h; test: as above
[3] = measured here: phoP- strain counter-screen shift
[4] = measured here: wild-type strain IC50 shift, stronger effect = higher value
[5] = WT polymyxin IC50 at 150 uM, stronger effect = lower value

Row | Structure (SMILES) | polymyxin IC50 shift [1, 3] | polymyxin IC50 shift [1, 4] | IC50 [2] [nM] | polymyxin IC50 ([2]; phoP- polymyxin IC50 at 150 uM) [nM] | polymyxin IC50 shift difference WT - phoP- ([1]; stronger effect = higher value) | polymyxin IC50 [2, 5] [nM]
1 | COc1ccc(CNC(=S)Nc2ccncc2)cc1 | 1.46 | 10.1 | 75000 | 4420 |  | 
2 | CCn1cc(C(=O)O)c(=O)c2cc(F)c(N3CCN(C(=S)Nc4ccccc4C(F)(F)F)CC3)cc21 | 3.42 | 0.032 |  | 2950 | -3.38 (inactive) | 2590
3 | O=C1C2=C(Nc3ccccc3SC2c2ccc(I)cc2)c2ccccc21 (stereo not drawn) | 1.03 | 2.66 |  | 2890 | 1.63 (inactive) | 2470
4 | O=C1C2=C(Nc3ccccc3SC2c2ccsc2)c2ccccc21 (stereo not drawn) | -0.359 | 1.78 |  | 3000 | 2.14 (inactive) | 2670
5 | O=C(Nc1ccc(Br)cc1)N1CCCN(Cc2ccccc2F)C1 | 1.55 | -0.956 |  | 2620 | -2.51 (inactive) | 4820
6 | COc1cccc(C2Sc3ccccc3NC3=C2C(=O)c2ccccc23)c1 (stereo not drawn) | 5.35 | 3.6 |  |  | -1.75 (inactive) | 2110

Source: PubChem BioAssay AID2816 (Southern Research Specialized Biocontainment Screening …, 2010)
